Results reported in patent US20070166547A1, “Use of a layer consisting of hydrophobic linear, or two-dimensional polycyclic aromatics as a barrier layer or an encapsulation and electric components constructed with a layer of this type and comprising organic polymers” (priority 2003, published 2007).

Tests used:
[1] = system: adenosine-sensitive receptors of thrombocytes; test: ADP-induced aggregation of thrombocytes in vitro (Born method); assay type: cell-based, rabbit; details: 3 min incubation, ADP 10^−5 M
Procedure: The compounds according to the invention were studied for the effect of aggregation of thrombocytes induced by a preliminary introduction of a solution of an aggregation inductor with a competing introduction of the compounds according to the invention.
The aggregation of thrombocytes was studied by the Born method based on determination of the changes in the optical density of plasma enriched with thrombocytes after its incubation with an aggregation inductor.
Adenozinediphosphoric acid (ADP) was selected as an aggregation inductor, which in fact is an aggregation generator. Use was made of a sample (registration number 885) of the Sigma Diagnostics Company (USA) in final concentration of 10^−5 M.
The experiments were carried out on male rabbits of the “Chinchilla” breed having a mass of 2.7±0.3 kg. 18-24 hours prior to the experiment they were deprived of feed while preserving free access to water.
To obtain plasma enriched with thrombocytes, blood was taken from a cut of a marginal vein of the rabbit ear, the sample was stabilized with 3.8% of sodium citrate solution in a ratio of 9:1 and centrifuged at 200 g (1000 rev/min) for 10 minutes. The top supernatant layer enriched with thrombocytes was transferred by an automatic dropper into a silicone test tube and kept at 37° C. The plasma enriched with thrombocytes contained, on the average, […]. If this content exceeded the specified 3×10^8 blood platelets in 1 liter, this sample was diluted to the necessary concentration with plasma deprived of thrombocytes, which was obtained by centrifuging blood at 650 g during 10 minutes.
The measurements of the optical density of the samples were made on two-channel aggregometer of the “Chronolog” Company (USA). A flask containing 490 mkl of plasma rich with thrombocytes was placed in a device, into which a magnetic agitator covered with Teflon was lowered. The index of maximum amplitude of aggregation (MA) in percent of a fall of the plasma optical density under effect of the aggregation inductor was recorded. The control index MA of plasma was compared with the MA of plasma incubated for 3 minutes with different concentrations of the compounds: from 10^−3 to 10^−7 in vitro experiments or with plasma obtained 15, 30, 60 and 120 minutes after intravenous administration of different doses of the compounds in vivo experiments.
The process of aggregation of thrombocytes was recorded with the help of a computer; on the monitor screen the there were depicted curves reflecting changes of the optical density of the plasma enriched which was taken as a standard 100% compared to the optical density of the non-thrombocyte plasma taken for 0% content of thrombocytes.
Under in vitro conditions a flask was filled with blood plasma enriched with thrombocytes, to which an aggregation inductor ADP was added at a concentration of 10^−5 M, incubated for 3 minutes, and then the compounds according to the invention were introduced directly into the flask. Their action by aggregation of thrombocytes was studied after 3-minute incubation in a wide range of concentrations from 10^−3 to 10^−7 M to minimum concentration of 10^−7 M not inducing no effect of suppressing the aggregation.

[2] = system: synthase of nitrogen oxide (NOC); test: Morphine abstinence model: activity of synthase of nitrogen oxide (radiometric, [3H]L-citrulline); assay type: in vivo, rats Wistar; details: morphine alone
thymus = test: Morphine abstinence model: thymus condition; assay type: in vivo, rats; details: morphine alone
Procedure: The effect of the compounds according to the invention on the condition of the thymus of the rats was also investigated: a control group, an experimental group of morphinized animals and an experimental group of animals were first morphinized and then injected with the compounds according to the invention. The experiment was carried out similarly to that described above.

[3] = Polarographic study of electrochemical reduction (electrochemical activity); assay type: physicochemical; details: for i, mkA (polarographic wave current) / −E1/2, V (half-wave potential vs SCE): 37° C., forward trace, average for the group; for i, mkA (polarographic wave current): 9·10^−4 M
Procedure: The study was carried out on a general-purpose polarograph PU-1 with a two-coordinate recorder of the “LKD” type using a three-electrode thermostatically controlled polarographic cell and mercury dripping electrode (MDE) with forced separation of the drop and a dropping period of 0.5 second. A platinum wire was used as an auxiliary electrode and a saturated calomel electrode (SCE) was used as a control electrode.
2.0% solutions of sodium chloride having pH 7.0, 7.2, 7.4, 7.6 were used as a background; the pH values of the background solution were corrected by a solution of sodium hydroxide. The polarographic cell was filled with 5.0 ml of the background solution and for 5 minutes was purged with nitrogen for removing the dissolved oxygen. Then 0.5 ml of solution of the studied substance was added to the background solution, and the polarogram was recorded as a polarographic wave. The concentration of the compounds in the polarographic cell was 9·10^−4 M.
The pH was measured on the pH-meter with an accuracy of ±0.05 pH units. The polarographic measurements were carried out at a temperature of 37° C. The recording of polarograms of the investigated materials was effected under conditions of DC current at a scanning rate of the potential 10.0 mV/s with a active scanning stroke from a potential 0 to −0.5 V and sweep retrace from a −0.5 V to 0. The electric-current sensitivity was 5.0 mkA. The scale by the coordinate of the potentials was 50.0 mV/cm. The values of potentials of the half-wave E1/2 of the investigated materials are given with respect to the SCE potential.
The polarogram parameters such as a limiting current ilim and E1/2 were determined by the graphic method. The number of electrons participating in the reaction was calculated on the basis of the analysis of the polarographic wave using the Geirovsky-Ilkovich equation.

Row | Compound | MA - fall of optical density of plasma, % to the standard ([1]; 10^−3 M) [%] | MA - fall of optical density of plasma, % to the standard ([1]; 10^−4 M) [%] | MA - fall of optical density of plasma, % to the standard ([1]; 10^−5 M) [%] | MA - drop of optical density, % compared to control ([1]; 10^−6 M) [%] | MA - drop of optical density, % compared to control ([1]; 10^−7 M) [%] | other results
1 | O=c1[nH]n([C@@H]2O[C@H](CO)[C@@H](O)[C@H]2O)c(=O)c2nccc(O)c12.[Na].[Na] [Compound 4, disodium salt of 4-hydroxy-7-(βD-ribofuranosile)pyrido[2,3-d]-6H-pyridazine-5,8-dione] | 49.2 ± 2.3 | 50.2 ± 2.0 | 46.2 ± 3.1 | 50.6 ± 3.1 | 49.9 ± 3.4 | 
2 | O=c1[nH]n([C@@H]2O[C@H](CO)[C@@H](O)[C@H]2O)c(=O)c2ccccc12.[Na] [Compound 9, sodium salt of 2-(β-D-ribofuranosile)benzo[d]-3H-pyridazine-1,4-dione] | 47.3 ± 2.0 | 53.1 ± 1.8 | 41.4 ± 3.4 | 49.4 ± 3.2 | 51.2 ± 1.7 | 
3 | Nc1cnc2c(=O)[nH][nH]c(=O)c2n1.[Na] [Compound 28, sodium salt of 2-amino-pyrazine[2,3-d]-6H-pyridazine-5,8-dione] | 49.7 ± 2.2 | 48.9 ± 2.4 | 44.2 ± 2.7 |  | 50.4 ± 3.0 | 
4 | Nc1ncnc2c(=O)n([C@@H]3O[C@H](CO)[C@@H](O)[C@H]3O)[nH]c(=O)c12.[Na] [Compound 31, sodium salt of 4-amino-7-(β-D-ribofuranosile)pyrimido[4,5-d]-6H-pyridazine-5,8-dione] | 44.9 ± 2.3 | 46.7 ± 2.2 | 39.9 ± 2.1 | 47.5 ± 1.7 | 49.5 ± 1.2 | 
5 | CN1CC[C@]23c4c5ccc(O)c4O[C@H]2[C@@H](O)C=C[C@H]3[C@H]1C5 [Morphine, reference compound] |  |  |  |  |  | activity of the calcium-dependent form NOC in the liver [2]: rise of activity of the calcium-dependent form NOC; activity of the calcium-independent form NOC in the liver [2]: decrease of activity of the calcium-independent form NOC; Nitrites, thymus Supernatant, Administration of morphine (thymus): 0.511 ± 0.05 nmol/mg of protein; Thymus mass, Administration of morphine (thymus): 145 ± 9 mg
6 | sodium salt of 5-amino-2-(CP(β-D-ribofuranosile)benzo[d]-3H-pyridazine-1,4-dione [Compound 10] | 46.2 ± 2.7 | 48.7 ± 2.4 | 40.2 ± 4.0 | 48.4 ± 2.4 | 49.8 ± 2.0 | number of electrons participating in the reduction ([3]; calculated with the Geirovsky-Ilkovich equation): 4.09; i, mkA (polarographic wave current) ([3]; pH 7.0): 0.23 ± 0.03 mkA; −E1/2, V (half-wave potential vs SCE) ([3]; pH 7.0): 0.092 ± 0.02 V; i, mkA (polarographic wave current) ([3]; pH 7.2): 0.30 ± 0.01 mkA; −E1/2, V (half-wave potential vs SCE) ([3]; pH 7.2): 0.09 ± 0.01 V; i, mkA (polarographic wave current) ([3]; pH 7.4): 0.29 ± 0.02 mkA; −E1/2, V (half-wave potential vs SCE) ([3]; pH 7.4): 0.092 ± 0.02 V; i, mkA (polarographic wave current) ([3]; pH 7.6): 0.31 ± 0.02 mkA; −E1/2, V (half-wave potential vs SCE) ([3]; pH 7.6): 0.09 ± 0.01 V; half-wave potential more positive on reverse stroke than on forward stroke ([3]; reverse stroke vs forward stroke): 30.0 mV
